Reference: patent US9109003B2, “Extraction method for Ilex kudingcha C. J. Tseng leaves, total saponins and use thereof” (Peking University, priority 2011, dated 2015)

Tested on: ApoE−/− mice
Experiment: Arteriosclerotic area of ApoE−/− mice aortic outflow tract
Assay type: in vivo
Settings: high fat diet, vs HG (p<0.01), atorvastatin 50 mg/kg/d, total saponins 300 mg/kg/d, 6 weeks
Text: ApoE−/− mice were divided into four groups randomly by weight.
(1) Negative control group (CG): mice in this group were fed normally for 7 weeks, and intragastrically administrated with normal saline.
(2) High fat control group (HG): mice in this group were fed with high fat diet containing 0.2% cholesterol for 7 weeks, and intragastrically administrated with normal saline every day simultaneously.
(4) I. kudingcha total saponin therapeutic group (SG): the course of treatment is similar to that of AG, with the only difference between SG and AG lies in that the dosage of the total saponins from I. kudingcha is 300 mg/kg/d.
Effect of total saponins from I. kudingcha leaves on arteriosclerotic area of ApoE−/− mice aortic outflow tract is shown in FIG. 7.

CC(C)c1c(C(=O)Nc2ccccc2)c(-c2ccccc2)c(-c2ccc(F)cc2)n1CC[C@@H](O)C[C@@H](O)CC(=O)O [atorvastatin]
inhibition rate of formation of atherosclerotic plaque of aortic outflow tract: about 40%
